Key:
[1] = test system: CD4+ T cell clones NW2337-CD4-1 and NW2337-CD4-10; test: Peptide titration ELISPOT assay with overlapping NY-ESO-1 peptides; format: cell-based, human; conditions: peptide 10 μM to 0.1 nM pulsed onto autologous EBV-B-cells
Method: (§1) The CD4^+ T cells were restimulated weekly with 1 μg/ml of the peptide being used. On day 12, each CD4^+ culture was assayed for NY-ESO-1 peptide recognition, using the ELISPOT assay of lager, et al., Proc. Natl. Acad. Sci. USA, 97(9):4760-4765 (2000), incorporated by reference. To elaborate on this procedure, flat-bottomed, 96-well nitrocellulose plates were coated with 5 μg/ml of anti-interferon-gamma antibody and incubated overnight at 4° C. After washing with PBS, plates were blocked with 10% human serum (HS) for 1 hour at 37° C. Depending on the effector:target ratio used, various numbers of presensitized CD4^+ T-cells were added to each well along with 5×10^4 autologous peptide pulsed EBV transfected B cells (“EBV-B cells”) serving as target cells and incubated for 16 hours at 37° C. in TCM without IL-2. Plates were then washed extensively (6 times with a solution of 0.05% Tween 20/PBS), and biotinylated anti-interferon-gamma detection antibody was added at a concentration of 0.5 μg/ml. After incubation for 2 h at 37° C., plates were washed and incubated with ABC-AP Vectastain for 1 hour. Plates were washed again and developed with substrate (BCIP/NPT) until blue spots were visible. The number of blue spots/well represented the proportion of NY-ESO-1 specific CD4^+ T-cells/well was finally counted under the microscope.
To further identify the exact epitope required for CD4^+ T cell recognition by these two CD4^+ T cell clones, a peptide titration assay was performed using overlapping NY-ESO-1 peptides (FIG. 2) at concentrations between 10 μM and 0.1 nM, pulsed onto autologous EBV-B-cells and tested in ELISPOT assays (FIG. 3).

NW2337 CD4+ T cells = test: Cytokine ELISPOT assays (IFNγ, TNFα, IL4, IL10) of NW2337 CD4+ T cells; format: cell-based, human
Excerpt: All ELISPOT assay described, supra were designed to detect IFN-γ secretion by the T cell clones following specific antigen stimulation. To determine the phenotype of the NY-ESO-1 specific CD4^+ T cell clones from patient NW2337, additional ELISPOT assays were designed to detect additional cytokines.
The NW2337 CD4^+ T cells were stimulated with either NY-ESO-1 p49-66 and p55-72 peptides and T cells secretion of IFNγ, TNFα, IL4 and IL10measured by ELISPOT assay. […] IL4 and IL10 was not secreted by any of the NY-ESO-1 specific CD4^+ T-cell clones tested following stimulation with NY-ESO-1 p49-66 and p55-72 peptides.

CD4+ T cells = test: IFN-γ ELISPOT of CD4+ T cells presensitized with overlapping NY-ESO-1 18 mer peptides; format: cell-based, human
Method: Peripheral blood mono-nuclear cells (“PBMCs”) were separated from heparinized blood via Ficoll density gradient separation, using standard, art recognized techniques. Once this was done, the CD4^+ and CD8^+ T cells were separated from each other using magnetic cell sorting techniques which are well known to the art, producing CD4^+, CD8^+, and CD4^−/CD8^− cell populations.
A series of 18 mer peptides were prepared from the amino acid sequence of NY-ESO-1 as set forth in, e.g., U.S. Pat. No. 5,804,381, incorporated by reference. The peptides were designed to cover the entire sequence of NY-ESO-1, and to provide overlap.
The peptides were then individually pulsed to antigen presenting cells (“APCs”). These were CD4^−/CD8^− PBMCs taken from the same subjects who had provided the CD4^+ and CD8^+ cells. These APCs were irradiated with 3000 rads, and then pulsed with one of the peptides, at a concentration of 10 μg/ml, for 1 hour, in serum free medium. These APCs were then washed, and added to the CD4^+ cells. In the pulsing experiments, the peptides were solubilized in DMSO (100%) and then diluted with PBS to a final concentration of 10% DMSO. The CD4^+ cells had been cultured in a medium of L-arginine (242 mg/l), L-asparagene (50 mg/l), L-glutamine (300 mg/l), penicillin (10 IU/ml), streptomycin (100 μg/ml), 1% non-essential amino acids, 10% HS, and 10 ng/ml of recombinant human IL-2.
as §1
The EBV-B-cells were generated from each patients' PBMC following standard methods and maintained in RPMI 1640 medium supplemented with 10 mM Hepes buffer, L-arginine (242 mg/l), L-asparagine (50mg/l), L-glutamine (300 mg/l), penicillin (10 IU/ml), streptomycin (100 μg/ml), 1% non-essential amino acids, and 10% FCS. […] PBMC's or EBV-B-cells were molecularly typed for HLA expression using standard procedures.

HLA-DQB1 03011 = target: T1, HLA-DQB1 03011 (Homo sapiens, UniProt P01909+P01920); test: ELISPOT with peptide pulsed allogeneic EBV-B-cells of known HLA class II type (HLA restriction); format: cell-based
T1 construct: peptide pulsed allogeneic EBV-B-cells with known HLA class II types as stimulator cells; endogenous in cells; host or cells: allogeneic patient-derived EBV-transformed B-cell lines (NW-2078, NW-2081, NW-2395, NW-2234, NW-2337, NW-1100, MZ-1257)
T1 sequence (P01920 33-261, other chains not shown): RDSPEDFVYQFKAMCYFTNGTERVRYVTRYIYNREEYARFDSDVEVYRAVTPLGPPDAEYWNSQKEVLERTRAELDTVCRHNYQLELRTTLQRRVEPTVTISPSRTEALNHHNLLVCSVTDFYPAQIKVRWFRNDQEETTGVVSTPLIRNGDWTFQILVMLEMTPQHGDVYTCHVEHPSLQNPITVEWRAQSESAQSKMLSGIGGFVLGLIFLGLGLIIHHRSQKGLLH
Method: In order to determine the HLA molecule to which the novel NY-ESO-1 peptides described above bind, the NW2337 CD4^+ T-cell clones NW2337-CD4-1 and NW2337-CD4-10, were tested in ELISPOT assays using a range of peptide pulsed allogeneic EBV-B-cells with known HLA class II types as stimulator cells as indicated in the following Table. The EBV-B-cell lines were HLA typed using standard methods as described above.
The NW2337-CD4-1 clone recognized allogenic peptide pulsed EBV-B cells from patients NW-2078, NW-2081, NW-2395, NW-2234, NW-2337, NW-1100 and MZ-1257. The allogenic EBV-B cells were recognized by the T cells when pulsed exogenously with either the NY-ESO-1 p49-66 or p55-72 as observed with autologous EBV-B cells described above. […] None of the EBV-B-cells lines that were not recognized by the T cells expressed this MHC allele. […] Again the NY-ESO-1 positive MZ-1257 EBV-B-cell line was recognized with or without exogenous peptide.

Substance: P55-72: synthetic 18 mer peptide, amino acids 55-72 of NY-ESO-1 (GPGGGAPRGPHGGAASGL; UniProt P78358 55-72, looked up, fragment) [Peptide P55-72]
- recognition by clone NW2337-CD4-1 [1]: recognized
- recognition by clone NW2337-CD4-10 [1]: able to recognize
- IFN-γ secretion by stimulated T cell clones (NW2337 CD4+ T cells): produced
- IL4 secretion by stimulated T cell clones (NW2337 CD4+ T cells): not secreted
- IL10 secretion by stimulated T cell clones (NW2337 CD4+ T cells): not secreted
- TNF-α secretion by stimulated T cell clones (NW2337 CD4+ T cells): produced
- Patient T cells 1 (CD4+ T cells; IFN-γ ELISPOT, day 12, CD4+ T cells of patient 1, autologous peptide pulsed EBV-B cells as targets): + (+ indicates >50 spots (all + scores indicated were >100 spots))
- Patient T cells 2 (CD4+ T cells; IFN-γ ELISPOT, day 12, CD4+ T cells of patient 2, autologous peptide pulsed EBV-B cells as targets): + (+ indicates >50 spots (all + scores indicated were >100 spots))
- Patient T cells 3 (CD4+ T cells; IFN-γ ELISPOT, day 12, CD4+ T cells of patient 3, autologous peptide pulsed EBV-B cells as targets): + (+ indicates >50 spots (all + scores indicated were >100 spots))
- patients whose CD4+ T cells recognized the peptide (CD4+ T cells; three patients tested): all three patients
- MHC class II allele presenting the peptide to NW2337-CD4-10 T cells (HLA-DQB1 03011; only HLA-DQB1 03011 expressing allogenic EBV-B cell lines recognized): HLA-DQB1 03011
- MHC class II allele presenting the peptide to NW2337-CD4-1 T cells (HLA-DQB1 03011; only shared allele of the recognized peptide pulsed allogenic EBV-B cell lines): HLA-DQB1 03011
